Laboratory results as given in patent US11220504B2, “Pyrrolo[3,2-d] pyrimidine derivatives for the treatment of viral infections and other diseases” (JANSSEN SCIENCES IRELAND UNLIMITED COMPANY, priority 2012, dated 2022).

How the values were obtained:
human TLR7 = target: T1, human TLR7 (Homo sapiens, UniProt Q9NYK1); experiment: TLR7 cellular reporter assay (HEK293, NFκB-luc); assay type: cell-based; settings: HEK293 cells transfected with CMV-TLR7 and NFκB-luc, 6 hours incubation; lowest effective concentration
T1 construct: expressed in transfected cells; host or cells: HEK293 cells, transient transfection with CMV-TLR7 plasmid and NFκB-luc plasmid
T1 sequence (Q9NYK1 27-1049): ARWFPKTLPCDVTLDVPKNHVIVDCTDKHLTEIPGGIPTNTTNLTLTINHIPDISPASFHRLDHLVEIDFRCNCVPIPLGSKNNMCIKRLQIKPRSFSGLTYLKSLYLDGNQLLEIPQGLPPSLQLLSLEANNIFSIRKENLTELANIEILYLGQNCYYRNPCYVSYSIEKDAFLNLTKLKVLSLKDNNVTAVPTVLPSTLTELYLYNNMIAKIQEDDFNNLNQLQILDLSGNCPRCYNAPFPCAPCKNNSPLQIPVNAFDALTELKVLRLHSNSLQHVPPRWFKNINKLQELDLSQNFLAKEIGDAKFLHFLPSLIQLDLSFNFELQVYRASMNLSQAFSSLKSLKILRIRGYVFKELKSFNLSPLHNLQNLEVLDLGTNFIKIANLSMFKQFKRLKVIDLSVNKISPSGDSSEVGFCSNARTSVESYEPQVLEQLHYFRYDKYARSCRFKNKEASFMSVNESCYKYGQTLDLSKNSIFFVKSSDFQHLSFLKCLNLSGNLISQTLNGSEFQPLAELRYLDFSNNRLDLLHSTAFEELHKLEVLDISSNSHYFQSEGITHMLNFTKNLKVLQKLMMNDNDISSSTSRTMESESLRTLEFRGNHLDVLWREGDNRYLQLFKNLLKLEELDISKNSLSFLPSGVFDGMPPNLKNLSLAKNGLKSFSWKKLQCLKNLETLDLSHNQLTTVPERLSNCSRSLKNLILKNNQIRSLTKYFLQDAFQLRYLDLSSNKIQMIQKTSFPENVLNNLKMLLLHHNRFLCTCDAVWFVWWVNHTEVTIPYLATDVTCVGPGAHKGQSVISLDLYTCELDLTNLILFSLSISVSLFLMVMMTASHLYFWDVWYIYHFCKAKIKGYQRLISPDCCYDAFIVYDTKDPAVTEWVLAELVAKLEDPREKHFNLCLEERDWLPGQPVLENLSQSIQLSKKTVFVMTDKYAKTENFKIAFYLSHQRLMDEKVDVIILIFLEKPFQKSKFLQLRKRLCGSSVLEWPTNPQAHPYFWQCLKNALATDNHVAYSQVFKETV
Outline: (§1)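 HEK293 cells transiently transfected with receptor expression vector plus NFκB-luciferase reporter, exposed to compound (added in 4% DMSO) for 6 hours at 37° C, 5% CO2. Luciferase activity measured by luminescence; dose-response curves from quadruplicate measurements.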

human TLR8 = target: T2, human TLR8 (Homo sapiens, UniProt Q9NR97); experiment: TLR8 cellular reporter assay (HEK293, NFκB-luc); assay type: cell-based; settings: HEK293 cells transfected with CMV-TLR8 and NFκB-luc, 6 hours incubation; lowest effective concentration
T2 construct: expressed in transfected cells; host or cells: HEK293 cells, transient transfection with TLR8 plasmid and NFκB-luc plasmid
T2 sequence (Q9NR97 27-1041): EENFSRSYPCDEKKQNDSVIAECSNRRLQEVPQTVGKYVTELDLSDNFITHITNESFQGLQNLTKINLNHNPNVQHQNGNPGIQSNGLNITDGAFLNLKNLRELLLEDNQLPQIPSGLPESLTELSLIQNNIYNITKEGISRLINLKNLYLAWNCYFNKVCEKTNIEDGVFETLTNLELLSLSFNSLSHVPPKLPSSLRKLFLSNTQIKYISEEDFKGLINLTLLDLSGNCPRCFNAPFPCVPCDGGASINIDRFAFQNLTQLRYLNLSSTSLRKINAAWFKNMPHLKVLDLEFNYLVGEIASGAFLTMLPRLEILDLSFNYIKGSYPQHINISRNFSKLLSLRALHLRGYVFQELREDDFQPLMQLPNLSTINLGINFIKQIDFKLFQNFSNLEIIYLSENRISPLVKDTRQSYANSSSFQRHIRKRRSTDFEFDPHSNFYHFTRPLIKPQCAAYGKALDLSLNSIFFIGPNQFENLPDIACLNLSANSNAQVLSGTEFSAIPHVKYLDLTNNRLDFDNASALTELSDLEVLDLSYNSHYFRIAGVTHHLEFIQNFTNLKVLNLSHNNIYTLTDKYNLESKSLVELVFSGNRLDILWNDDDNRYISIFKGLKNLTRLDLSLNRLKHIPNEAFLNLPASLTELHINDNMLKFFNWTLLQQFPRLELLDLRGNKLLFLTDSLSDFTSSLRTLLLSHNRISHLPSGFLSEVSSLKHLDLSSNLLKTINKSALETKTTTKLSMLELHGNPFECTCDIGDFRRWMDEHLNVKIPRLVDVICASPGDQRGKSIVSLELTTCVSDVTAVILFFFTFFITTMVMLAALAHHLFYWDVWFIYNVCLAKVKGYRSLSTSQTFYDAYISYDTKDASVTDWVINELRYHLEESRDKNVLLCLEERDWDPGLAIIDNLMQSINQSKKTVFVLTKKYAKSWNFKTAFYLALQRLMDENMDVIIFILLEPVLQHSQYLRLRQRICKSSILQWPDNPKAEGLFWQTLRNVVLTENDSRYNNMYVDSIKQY
Outline: as §1

[1] = tested on: interferon-stimulated responsive elements (ISRE); experiment: Activation of ISRE promoter elements by conditioned media from PBMC (HEK-ISREluc); assay type: cell-based, human; settings: conditioned media from PBMC transferred to HEK-ISREluc cells, 24 hours, lowest effective concentration; for minimal effective concentration: Homo sapiens, read-out: PBMC LEC
Outline: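 Human PBMCs (≥2 donors, RPMI + 10% human AB serum, 2×10^5 cells/well) incubated overnight with compound; supernatant transferred to HEK293 cells stably carrying pISRE-Luc for 24 h, then luciferase read. LEC = compound concentration on PBMCs giving luciferase signal at least two-fold above assay SD; recombinant IFN-α-2a standard.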

Structure (SMILES) | TLR7 LEC (human TLR7) [µM] | TLR8 LEC (human TLR8) [µM] | minimal effective concentration [1] [µM] | PBMC LEC [1] [µM]
CCCC[C@@H](CCO)Nc1nc(N)nc2ccn(Cc3ccccn3)c12 [Compound 25] | 0.01 | 2.84 | 0.001 | 
COc1cccnc1Cn1ccc2nc(N)nc(NCc3ncc(C)o3)c21 [Compound 213] | <0.01 | >25 | 0.001 | 
CC(Nc1nc(N)nc2ccn(C)c12)c1ccccn1 (stereo not drawn) [Compound 104] | 11.960 | >25 | 1.98 | 
CCCC(C)Nc1nc(N)nc2ccn(Cc3ccccc3F)c12 (stereo not drawn) [Compound 74] | 0.10 | >25 | 0.04 | 
Cc1cc(CNc2nc(N)nc3ccn(Cc4ccccc4)c23)no1 [Compound 48] | 0.05 | >25 | 0.03 | 
CCC[C@H](CO)Nc1nc(N)nc2ccn(Cc3ccccc3)c12 [Compound 31] | 0.22 | >25 | 0.16 | 
COCCNc1nc(N)nc2ccn(Cc3ccc(C(F)(F)F)cn3)c12 [Compound 117] | 2.950 | >22.7 | 1.43 | 
Cn1ccc(CNc2nc(N)nc3ccn(Cc4ccccc4)c23)n1 [Compound 49] | 22.43 | >25 | 2.34 | 
Nc1nc(NCc2ccoc2)c2c(ccn2Cc2ccccc2)n1 [Compound 45] | 19.9 | >25 | 0.74 | 
Cc1cc(CNc2nc(N)nc3ccn(Cc4cccc(C(F)(F)F)n4)c23)no1 [Compound 143] | 0.10 | >25 | 0.016 | 
COc1ccccc1Cn1ccc2nc(N)nc(NCc3noc(C)n3)c21 [Compound 205] | <0.01 | 7.7 | 0.001 | 
CCC[C@@H](CCO)Nc1nc(N)nc2ccn(Cc3cscn3)c12 [Compound 85] | 0.03 | 10.14 | 0.002 | 
COCCNc1nc(N)nc2ccn(Cc3ccccc3OC(F)F)c12 [Compound 162] | 0.32 | >25 | 0.128 | 
CCC[C@@H](CO)Nc1nc(N)nc2ccn(Cc3ccccn3)c12 [Compound 22] | 0.48 | 9.2 | 0.02 | 
CCC[C@@H](CCO)Nc1nc(N)nc2ccn(Cc3ccccc3)c12 [Compound 21] | 0.009 | 7.4 | 0.0007 | 

Now from value to compound, other results behind:

TLR7 LEC (human TLR7) [µM] | TLR8 LEC (human TLR8) [µM] | Structure (SMILES) | minimal effective concentration [1] [µM] | PBMC LEC [1] [µM]
3.220 | >25 | COCCNc1nc(N)nc2ccn(Cc3cc(OC)ccn3)c12 [Compound 120] | 2.16 | 
2.5 | 7.06 | CCCCNc1nc(N)nc2ccn(C(C)C)c12 [Compound 19] | 0.62 | 
0.83 | >25 | CCCNc1nc(N)nc2ccn(Cc3ccccc3)c12 [Compound 23] | 0.27 | 
0.24 | >25 | CCCCNc1nc(N)nc2c(C)cn(Cc3ccccc3)c12 [Compound 58] |  | 0.90
0.32 | 4.68 | CCCCNc1nc(N)nc2ccn(CC3CCCO3)c12 (stereo not drawn) [Compound 71] | 0.24 | 
2.030 | >25 | COCCNc1nc(N)nc2ccn(Cc3cccc(OC)c3)c12 [Compound 107] | 2.13 | 
0.11 | >25 | CCCCNc1nc(N)nc2ccn(Cc3ccccc3F)c12 [Compound 43] | 0.17 | 
0.38 | >25 | CCCCNc1nc(N)nc2ccn(CC3CC3)c12 [Compound 53] | 0.07 | 
0.005 | >25 | CCCC[C@@H](CCO)Nc1nc(N)nc2ccn(Cc3ccccc3)c12 [Compound 37] | 0.007 | 
8.07 | >25 | COCCNc1nc(N)nc2ccn(C[C@H]3CCCO3)c12 [Compound 160] | 1.81 | 
0.30 | >25 | CCCCNc1nc(N)nc2ccn(Cc3cccc(F)c3)c12 [Compound 5] | 0.2 | 
0.10 | 4.46 | CCC[C@@H](CCO)Nc1nc(N)nc2ccn(CC3CCCO3)c12 (stereo partly drawn) [Compound 92] | 0.02 | 
0.16 | 3.93 | CCCCNc1nc(N)nc2ccn(C[C@H]3CCCO3)c12 [Compound 148] | 0.056 | 
1.940 | >25 | CCCCNc1nc(N)nc2ccn(Cc3ccccc3OC(F)(F)F)c12 [Compound 130] | 0.804 | 
0.06 | 0.9934 | CCCCNc1nc(N)nc2ccn(CC3CCC3)c12 [Compound 62] | 0.06 | 
8.76 | >25 | CC(C)(O)CCNc1nc(N)nc2ccn(Cc3ccccn3)c12 [Compound 198] | 0.617 | 
0.91 | >25 | COCCNc1nc(N)nc2ccn(Cc3ccccc3)c12 [Compound 34] | 0.54 | 
0.04 | 1.14 | CCCC[C@@H](CCO)Nc1nc(N)nc2ccn(CC3CCC3)c12 [Compound 84] | 0.01 | 
1.5 | 3.5 | CCCCNc1nc(N)nc2ccn(CCc3ccccc3)c12 [Compound 11] | 0.56 | 
0.67 | >25 | CCCCNc1nc(N)nc2cc(C)n(Cc3ccccc3)c12 [Compound 63] | 0.18 | 
